From ChEMBL document CHEMBL4819147, “Design, synthesis and biological evaluation of novel molecules as potent PARP-1 inhibitors” (Bioorg Med Chem Lett, 2021) come the findings set out here.

Series [1] addresses T1, Poly [ADP-ribose] polymerase 1 (Homo sapiens, UniProt P09874). Put plainly: Inhibition of PARP1 (unknown origin).
The target of series [2] is T1, Poly [ADP-ribose] polymerase 1. Put plainly: Inhibition of PARP1 (unknown origin) at 10 nM relative to control.
Series [3] relates to HCT-116. Put plainly: Antiproliferative activity against BRCA2-deficient human HCT116 cells assessed as cell growth inhibition. The class given is functional, cell-based.
The next series relates to HCC1937. Put plainly: Antiproliferative activity against BRCA1-deficient human HCC1937 cells assessed as cell growth inhibition. The class given is functional, cell-based.
A short description of series [4]: Octanol-water partition coefficient, logP of the compound. The class given is physicochemical.
Series [5] can be described thus: Half life in human liver microsomes incubated for 50 mins. In kind it is ADME, Microsome. On the technique in general: Liver microsomes are a subcellular fraction often used to study metabolism.
Series [6] relates to HCT-116. As to the kind of experiment: Potency index, ratio of olaparibIC50 to test compound IC50 for antiproliferative activity against BRCA2-deficient human HCT116 cells assessed as cell growth inhibition. The class given is functional.
Series [7] can be described thus: Intrinsic clearance in human liver microsomes incubated for 50 mins. In kind it is ADME, Microsome.

One may read the IC50 as the concentration at which inhibition is half-maximal. The inhibition is the share of the control response that was lost under treatment. Read a high inhibition as a strong effect. A word on the logP: it is the decadic logarithm of the partition coefficient of the neutral form, usually between octanol and water. The half-life is the time in which the quantity being followed falls by half.

T1 sequence (P09874 whole entry): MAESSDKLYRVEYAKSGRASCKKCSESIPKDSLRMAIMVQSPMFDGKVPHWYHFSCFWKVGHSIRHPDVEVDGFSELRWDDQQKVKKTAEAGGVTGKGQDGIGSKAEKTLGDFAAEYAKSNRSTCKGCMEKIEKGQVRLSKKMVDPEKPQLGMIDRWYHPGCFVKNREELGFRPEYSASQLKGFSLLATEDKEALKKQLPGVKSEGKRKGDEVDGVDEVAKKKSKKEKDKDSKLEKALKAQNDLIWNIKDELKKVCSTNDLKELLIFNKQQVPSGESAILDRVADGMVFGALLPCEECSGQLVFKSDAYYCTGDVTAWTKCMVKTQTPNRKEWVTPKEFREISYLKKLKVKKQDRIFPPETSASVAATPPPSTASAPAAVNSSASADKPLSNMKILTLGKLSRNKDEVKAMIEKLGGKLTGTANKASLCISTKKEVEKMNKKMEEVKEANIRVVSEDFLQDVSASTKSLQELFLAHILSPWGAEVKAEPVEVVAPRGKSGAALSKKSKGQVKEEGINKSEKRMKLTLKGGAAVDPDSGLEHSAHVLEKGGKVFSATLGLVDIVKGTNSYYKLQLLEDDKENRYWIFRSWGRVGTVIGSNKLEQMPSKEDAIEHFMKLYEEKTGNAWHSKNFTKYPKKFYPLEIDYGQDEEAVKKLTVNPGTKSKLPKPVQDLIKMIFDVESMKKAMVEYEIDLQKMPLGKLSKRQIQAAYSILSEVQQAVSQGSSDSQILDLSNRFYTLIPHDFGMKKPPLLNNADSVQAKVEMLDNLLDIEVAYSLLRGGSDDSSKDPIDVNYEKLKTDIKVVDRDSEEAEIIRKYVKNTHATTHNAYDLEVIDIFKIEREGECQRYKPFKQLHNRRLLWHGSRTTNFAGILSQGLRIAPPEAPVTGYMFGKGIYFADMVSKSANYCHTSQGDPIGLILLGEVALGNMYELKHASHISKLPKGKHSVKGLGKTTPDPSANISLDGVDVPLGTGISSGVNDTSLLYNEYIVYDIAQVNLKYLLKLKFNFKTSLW

For `O=C(c1cc(Cc2n[nH]c(=O)c3ccccc23)ccc1F)N1CCn2c(nc3ccccc32)C1`, the IC50 in series [1] is 0.49 nM.
As to `O=C(c1cc(Cc2n[nH]c(=O)c3ccccc23)ccc1F)N1CCC(c2nc3ccccc3[nH]2)CC1`, the inhibition in series [2] was 100%. The same molecule gave a 50% inhibitory concentration (IC50) in series [1] of 0.63 nM.
For `COc1ncc(C(N)=O)c2nc(C3CCN(C(=O)c4cc(Cc5n[nH]c(=O)c6ccccc56)ccc4F)CC3)[nH]c12` the same measures were 98% and 2.4 nM.
As for `O=C(c1cc(Cc2n[nH]c(=O)c3ccccc23)ccc1F)N1CCN(C(=O)C2CC2)CC1` [OLAPARIB], the half-maximal inhibitory concentration (IC50) in the series on HCT-116 [3] was found to be 5860 nM; in the series with HCC1937, 13000 nM. Further, the logP in series [4] was 2.79.
For the molecule `NC(=O)c1cncc2[nH]c(C3CCN(C(=O)c4cc(Cc5n[nH]c(=O)c6ccccc56)ccc4F)CC3)nc12`, the IC50 in the series with HCT-116 [3] was 161000 nM; in series [1] it was 0.23 nM; with HCC1937, 130000 nM.
For `Cc1ccc2nc3n(c2c1)CCN(C(=O)c1cc(Cc2n[nH]c(=O)c4ccccc24)ccc1F)C3` the same measures were 10 nM, 0.47 nM and 11.6 nM.
Regarding `O=c1[nH]nc(Cc2ccc(F)c(CN3CCN(c4nc5ccccc5[nH]4)CC3)c2)c2ccccc12`, the inhibition in series [2] stood at 42%.
On to `O=C(c1cc(Cc2n[nH]c(=O)c3ccccc23)ccc1F)N1CCN(c2nc3ccccc3[nH]2)CC1`, for which the IC50 came to 490 nM with HCT-116 [3], 0.19 nM in series [1] and 610 nM in the series with HCC1937. This molecule displayed an inhibition in series [2] of 100%. The logP in series [4] came out at 4.15.
For the molecule `O=C(c1cc(Cc2n[nH]c(=O)c3ccccc23)ccc1F)N1CCn2c(nc3ccc(Cl)cc32)C1`, the concentration for half-maximal inhibition (IC50) in the series with HCT-116 [3] was 11.9 nM; in series [1], 0.4 nM; with HCC1937, 11.7 nM.
In series [2], `CCOc1ncc(C(N)=O)c2nc(C3CCN(C(=O)c4cc(Cc5n[nH]c(=O)c6ccccc56)ccc4F)CC3)[nH]c12` had an inhibition of 100%. In series [1], half-maximal inhibition (IC50) required 1.7 nM.
Take `COc1nnc(Cc2ccc(F)c(C(=O)N3CCC(c4nc5c(C(N)=O)cncc5[nH]4)CC3)c2)c2ccccc12`: in series [2], the inhibition turned out to be 40%.
In series [5], `O=C(c1cc(Cc2n[nH]c(=O)c3ccccc23)ccc1F)N1CCn2c(nc3ccc(F)cc32)C1` came in with a half-life of 2.89 h. Also, the “Ratio IC50” value in the series on HCT-116 [6] is 885. Moreover, the IC50 was found to be 6.62 nM in the series with HCT-116 [3], 0.51 nM in series [1] and 12.7 nM with HCC1937. The same molecule displayed a CLH in series [7] of 40 µL/min/mg. The molecule further had a logP in series [4] of 4.83.
In turn, `O=c1[nH]nc(Cc2ccc(F)c(CN3CCC(c4nc5ccccc5[nH]4)CC3)c2)c2ccccc12` yielded an inhibition in series [2] of 47%.
